Results as given in PubChem BioAssay (NCI).
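Where inhibition never reached the appropriate level, the endpoint shown equals the highest concentration tested. Otherwise, values were interpolated linearly from a five-concentration, 48-hour dose response in 96-well plates. The concentration for full growth arrest is given as TGI.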

How the values were obtained:
Test in all cases: DTP human tumour cell line panel, 48 h
OVCAR-8 ovarian = tested on: OVCAR-8 ovarian
PC-3 prostate = tested on: PC-3 prostate
MCF7 breast = tested on: MCF7 breast
BT-549 breast = tested on: BT-549 breast
NCI-H226 lung = tested on: NCI-H226 lung
SF-295 CNS = tested on: SF-295 CNS
UACC-62 melanoma = tested on: UACC-62 melanoma
HOP-92 NSCLC = tested on: HOP-92 NSCLC
NCI-H460 lung = tested on: NCI-H460 lung
A549 NSCLC = tested on: A549 NSCLC
U251 CNS = tested on: U251 CNS
A498 renal = tested on: A498 renal
RXF 393 renal = tested on: RXF 393 renal
EKVX NSCLC = tested on: EKVX NSCLC
HCT-116 colon = tested on: HCT-116 colon
CAKI-1 renal = tested on: CAKI-1 renal
OVCAR-3 ovarian = tested on: OVCAR-3 ovarian
SN12C renal = tested on: SN12C renal
MALME-3M melanoma = tested on: MALME-3M melanoma
MDA-N = tested on: MDA-N
KM12 colon = tested on: KM12 colon
SK-MEL-28 melanoma = tested on: SK-MEL-28 melanoma
SF-539 CNS = tested on: SF-539 CNS
HCC-2998 colon = tested on: HCC-2998 colon
NCI-H23 lung = tested on: NCI-H23 lung
SK-MEL-5 melanoma = tested on: SK-MEL-5 melanoma
IGROV1 ovarian = tested on: IGROV1 ovarian
OVCAR-4 ovarian = tested on: OVCAR-4 ovarian
LOX IMVI melanoma = tested on: LOX IMVI melanoma
MDA-MB-231 breast = tested on: MDA-MB-231 breast
M14 melanoma = tested on: M14 melanoma
HS 578T breast = tested on: HS 578T breast
UO-31 renal = tested on: UO-31 renal
MDA-MB-435 = tested on: MDA-MB-435
NCI/ADR-RES ovarian = tested on: NCI/ADR-RES ovarian
UACC-257 melanoma = tested on: UACC-257 melanoma
786-0 renal = tested on: 786-0 renal
SF-268 CNS = tested on: SF-268 CNS
SNB-75 CNS = tested on: SNB-75 CNS
COLO 205 colon = tested on: COLO 205 colon
HT29 colon = tested on: HT29 colon
SK-OV-3 ovarian = tested on: SK-OV-3 ovarian
SW-620 colon = tested on: SW-620 colon
K-562 leukemia = tested on: K-562 leukemia
T-47D breast = tested on: T-47D breast
SNB-19 CNS = tested on: SNB-19 CNS
ACHN renal = tested on: ACHN renal
OVCAR-5 ovarian = tested on: OVCAR-5 ovarian
HCT-15 colon = tested on: HCT-15 colon
MOLT-4 leukemia = tested on: MOLT-4 leukemia
TK-10 renal = tested on: TK-10 renal
SK-MEL-2 melanoma = tested on: SK-MEL-2 melanoma
CCRF-CEM leukemia = tested on: CCRF-CEM leukemia
HL-60(TB) leukemia = tested on: HL-60(TB) leukemia
SR leukemia = tested on: SR leukemia
HOP-62 NSCLC = tested on: HOP-62 NSCLC
NCI-H522 lung = tested on: NCI-H522 lung
RPMI-8226 leukemia = tested on: RPMI-8226 leukemia
DU-145 prostate = tested on: DU-145 prostate

Measured: TGI

CC(C#N)Nc1ccc(Oc2ccc(C(C)(C)c3ccc(Oc4ccc(NC(C)C#N)cc4)cc3)cc2)cc1 (stereo unspecified)
> 100 µM: OVCAR-8 ovarian | PC-3 prostate | MCF7 breast | BT-549 breast | NCI-H226 lung | SF-295 CNS | UACC-62 melanoma | HOP-92 NSCLC | NCI-H460 lung | A549 NSCLC | U251 CNS | A498 renal | RXF 393 renal | EKVX NSCLC | HCT-116 colon | CAKI-1 renal | OVCAR-3 ovarian | SN12C renal | MALME-3M melanoma | MDA-N | KM12 colon | SK-MEL-28 melanoma | SF-539 CNS | HCC-2998 colon | NCI-H23 lung | SK-MEL-5 melanoma | IGROV1 ovarian | OVCAR-4 ovarian | LOX IMVI melanoma | MDA-MB-231 breast | M14 melanoma | UO-31 renal | MDA-MB-435 | NCI/ADR-RES ovarian | UACC-257 melanoma | 786-0 renal | SF-268 CNS | SNB-75 CNS | COLO 205 colon | HT29 colon | SK-OV-3 ovarian | SW-620 colon | K-562 leukemia | T-47D breast | SNB-19 CNS | ACHN renal | OVCAR-5 ovarian | HCT-15 colon | MOLT-4 leukemia | TK-10 renal | SK-MEL-2 melanoma
94 µM: HS 578T breast

COc1ccccc1NC(=O)C(C#N)=C(SC)SC
> 100 µM: CCRF-CEM leukemia | PC-3 prostate | MCF7 breast | BT-549 breast | NCI-H226 lung | SF-295 CNS | UACC-62 melanoma | HOP-92 NSCLC | NCI-H460 lung | A549 NSCLC | U251 CNS | HL-60(TB) leukemia | A498 renal | SR leukemia | RXF 393 renal | EKVX NSCLC | HCT-116 colon | CAKI-1 renal | OVCAR-3 ovarian | SN12C renal | MALME-3M melanoma | MDA-N | KM12 colon | SK-MEL-28 melanoma | SF-539 CNS | HCC-2998 colon | HOP-62 NSCLC | NCI-H23 lung | SK-MEL-5 melanoma | IGROV1 ovarian | NCI-H522 lung | RPMI-8226 leukemia | OVCAR-4 ovarian | LOX IMVI melanoma | MDA-MB-231 breast | M14 melanoma | HS 578T breast | UO-31 renal | MDA-MB-435 | UACC-257 melanoma | 786-0 renal | SF-268 CNS | COLO 205 colon | HT29 colon | SK-OV-3 ovarian | SW-620 colon | K-562 leukemia | T-47D breast | SNB-19 CNS | DU-145 prostate | ACHN renal | OVCAR-5 ovarian | HCT-15 colon | MOLT-4 leukemia | TK-10 renal | SK-MEL-2 melanoma

O=c1c2cc(Br)ccc2oc2ccc(Br)cc12
> 100 µM: CCRF-CEM leukemia | OVCAR-8 ovarian | PC-3 prostate | MCF7 breast | BT-549 breast | NCI-H226 lung | SF-295 CNS | UACC-62 melanoma | HOP-92 NSCLC | NCI-H460 lung | A549 NSCLC | U251 CNS | HL-60(TB) leukemia | A498 renal | RXF 393 renal | HCT-116 colon | CAKI-1 renal | OVCAR-3 ovarian | SN12C renal | MALME-3M melanoma | MDA-N | KM12 colon | SK-MEL-28 melanoma | SF-539 CNS | HCC-2998 colon | NCI-H23 lung | SK-MEL-5 melanoma | IGROV1 ovarian | NCI-H522 lung | RPMI-8226 leukemia | OVCAR-4 ovarian | MDA-MB-231 breast | M14 melanoma | UO-31 renal | MDA-MB-435 | NCI/ADR-RES ovarian | UACC-257 melanoma | 786-0 renal | SF-268 CNS | SNB-75 CNS | COLO 205 colon | HT29 colon | SW-620 colon | K-562 leukemia | T-47D breast | SNB-19 CNS | DU-145 prostate | ACHN renal | OVCAR-5 ovarian | HCT-15 colon | MOLT-4 leukemia | TK-10 renal | SK-MEL-2 melanoma

COc1ccc(NS(=O)CCc2ccccc2)cc1 (stereo unspecified)
> 100 µM: CCRF-CEM leukemia | OVCAR-8 ovarian | MCF7 breast | NCI-H226 lung | SF-295 CNS | NCI-H460 lung | A549 NSCLC | U251 CNS | HL-60(TB) leukemia | SR leukemia | RXF 393 renal | EKVX NSCLC | HCT-116 colon | CAKI-1 renal | OVCAR-3 ovarian | SN12C renal | MALME-3M melanoma | MDA-N | KM12 colon | SK-MEL-28 melanoma | SF-539 CNS | HCC-2998 colon | HOP-62 NSCLC | NCI-H23 lung | SK-MEL-5 melanoma | IGROV1 ovarian | NCI-H522 lung | RPMI-8226 leukemia | LOX IMVI melanoma | MDA-MB-231 breast | M14 melanoma | HS 578T breast | UO-31 renal | MDA-MB-435 | NCI/ADR-RES ovarian | UACC-257 melanoma | 786-0 renal | SF-268 CNS | SNB-75 CNS | COLO 205 colon | HT29 colon | SW-620 colon | K-562 leukemia | SNB-19 CNS | DU-145 prostate | ACHN renal | OVCAR-5 ovarian | HCT-15 colon | MOLT-4 leukemia | TK-10 renal
